What was measured:
[1] = once-weekly subcutaneous injection, dose of 0.5 or 1 mg; cited from earlier work
[2] = Pharmacokinetic analysis in STZ-induced diabetes mellitus Wistar rats, single subcutaneous dose, serum ELISA; type: in vivo; details: male, rat, sc, STZ diabetic Wistar rats, single dose 5 mg/kg subcutaneous
Experimental: Streptozotocin (STZ), preferentially toxic to pancreatic beta cells, is commonly used to model […] diabetes mellitus (DM) in numerous species, including Wistar rat. 12-14 week-old male Wistar rats (300-380 g body weight) were selected for the study. Rats were randomly distributed to different groups based on ad-lib fed blood glucose and body weight. The diabetes mellitus (DM) was induced in Wister rats by single intraperitoneal injection of streptozotocin at 60 mg/kg STZ (n=6) in both control and test group for two weeks.
Basal glucose levels were recorded for all the animals before injecting STZ. All animals were again evaluated for the elevated blood levels after 15 days of STZ treatment. After the confirmation of high glucose levels animals were treated with single dose (5 mg/kg) of Liraglutide and D-Liraglutide by subcutaneous route.
Blood samples were collected at 0 (Pre-dose), 1, 2, 4, 8, 12, 24, 48, 72, 96, 120 and 144 h, post dose. At each time point, approximately, 0.3 mL of blood was withdrawn through retro orbital plexus under light isoflurane anesthesia in a labeled microfuge tube. All blood samples were centrifuged at 7000 rpm for 5 min at set temperature of 4° C. […]
The ELISA was performed for the quantitative measurement of the Liraglutide in the serum samples using Cloud-Clone Corp. (CEV769Ge 96 Tests) kit. […]

Row | Compound | half-life [1] [h] | time to reach steady state [1] | MRT [2] [h]
1 | semaglutide | 170 | 4-5 weeks | 
2 | CCCCCCCCCCCCCCCC(=O)N[C@@H](CCC(=O)NCCCC[C@H](NC(=O)[C@H](C)NC(=O)[C@H](C)NC(=O)[C@H](CCC(N)=O)NC(=O)CNC(=O)[C@H](CCC(=O)O)NC(=O)[C@H](CC(C)C)NC(=O)[C@H](Cc1ccc(O)cc1)NC(=O)[C@H](CO)NC(=O)[C@H](CO)NC(=O)[C@@H](NC(=O)[C@H](CC(=O)O)NC(=O)[C@H](CO)NC(=O)[C@@H](NC(=O)[C@H](Cc1ccccc1)NC(=O)[C@@H](NC(=O)CNC(=O)[C@H](CCC(=O)O)NC(=O)[C@H](C)NC(=O)[C@@H](N)Cc1cnc[nH]1)[C@@H](C)O)[C@@H](C)O)C(C)C)C(=O)N[C@@H](CCC(=O)O)C(=O)N[C@@H](Cc1ccccc1)C(=O)N[C@H](C(=O)N[C@@H](C)C(=O)N[C@@H](Cc1c[nH]c2ccccc12)C(=O)N[C@@H](CC(C)C)C(=O)N[C@H](C(=O)N[C@@H](CCCNC(=N)N)C(=O)NCC(=O)N[C@@H](CCCNC(=N)N)C(=O)NCC(=O)O)C(C)C)[C@@H](C)CC)C(=O)O [Liraglutide] |  |  | 34.8
